According to US20220387414A1, “TREATING LIVER DISORDERS” (Terns Pharmaceuticals Inc., priority 2019, published 2022):
Values joined by “and” are separate entries in the source; they are usually repeats but may differ in a detail not shown here. Identical values can stand only once.

Assays:
[1] = Clinical 7-day study, serum LDL; format: in vivo, human; conditions: healthy subjects, 25, 75, or 150 mg QD for 7 days
Text: (§1) Serum levels of Compound I in the subjects were periodically measured.
Serum levels of low-density lipoprotein (LDL) in the subjects were periodically measured.

[2] = Clinical 7-day study, serum exposure of Compound I; format: in vivo, human; conditions: healthy subjects, each 24-hour dosing period, all dosed groups
Text: (§2) Second Study. […] 10-14, 2019.
as §1

[3] = In vitro metabolic stability in cryopreserved hepatocytes (dog); format: in vitro ADME; conditions: Beagle Dog hepatocytes, 0.5×10^6 cells/mL, 37° C.
Text: (§3) 283, no. 1, pp. 46-58 (1997).

[4] = test system: NASH induced by a high fat diet in combination with CCl4; test: Mouse model of NASH (high fat diet in combination with CCl4); format: in vivo, C57/BL6J mice; conditions: 28 days
Procedure: Hematoxylin & Eosin (H&E) and Sirius Red histological staining of liver tissue was used to quantitate NAFLD activity score (NAS), steatosis, ballooning, inflammation and fibrosis.
NAS is calculated based upon liver steatosis, inflammation, and ballooning and was determined by analysis of liver tissue histology using H&E stain. Specifically, inflammation score was calculated based upon H&E staining: Score 0, none; 1, <2 foci per 200X field; 2, 2-4 foci per 200X field; 3, >4 foci per 200X field. […] Hepatocellular ballooning is a form of liver cell injury associated with cell swelling and is also measured by H&E stained liver sections. The ballooning score is calculated as follows: 0-no hepatocyte ballooning; 1-few ballooning hepatocytes; 2-many hepatocytes with prominent ballooning.
Liver fibrosis was quantified by histological analysis of the percentage of Sirius Red-positive liver sections.

[5] = Clinical 7-day study, safety and pruritus; format: in vivo, human; conditions: healthy volunteers
Procedure: as §2
Safety was assessed during dosing and for 10 (±1) days after dosing.

[6] = In vitro metabolic stability in cryopreserved hepatocytes (rat); format: in vitro ADME; conditions: Sprague-Dawley Rat hepatocytes, 0.5×10^6 cells/mL, 37° C.
Text: as §3

[7] = test system: 7-alpha-hydroxy-4-cholesten-3-one (7α-C4); test: PD profile (7α-C4 reduction) after oral dosing in monkeys; format: in vivo; conditions: cynomolgus monkeys, oral 1 mg/kg for 7 consecutive days
Procedure: (§4) The pharmacodynamics were measured as a function of 7-alpha-hydroxy-4-cholesten-3-one (7α-C4) reduction (FIG. 4), as quantified by LC-MS/MS. Pharmacokinetics data is presented in Table 3, and were determined by non-compartmental analysis.

[8] = Tissue distribution of radiolabeled (14C) Compound I after oral dose; format: in vivo; conditions: Long-Evans rats, oral 5 mg/kg (100 μCi/kg), up to 168 hours
[9] = Pharmacokinetics assay, IV and oral, monkey; format: in vivo, cynomolgus monkeys; conditions: plasma; Cynomolgus Monkey, oral 5 mg/kg, IV 0.3 mg/kg
Text: Results are shown in FIG. 1A (IV administration) and FIG. 1B (oral administration), and in Table 2. […] Smaller Vdss in monkeys is correlated with higher plasma protein binding.

[10] = In vitro metabolic stability in cryopreserved hepatocytes (human); format: in vitro ADME; conditions: 0.5×10^6 cells/mL, 37° C.
Text: as §3

[11] = In vitro metabolic stability in cryopreserved hepatocytes (mouse); format: in vitro ADME; conditions: 0.5×10^6 cells/mL, 37° C.
Text: as §3

FGF-19 = test: Clinical 7-day study, serum FGF-19; format: in vivo, human; conditions: healthy subjects, four hours after dosing on Day 7; dosing groups not assigned in the text
Text: as §1
Serum levels of FGF-19 in the subjects were periodically measured. FIGS. 17A and 17B show changes of mean serum levels of FGF-19 from the pre-dose baseline in different dosing groups on Day 1 and Day 7, respectively.

[12] = PK profile after oral dosing in monkeys; format: in vivo; conditions: cynomolgus monkeys, oral 1 mg/kg for 7 consecutive days
Procedure: as §4

[13] = In vitro metabolic stability in cryopreserved hepatocytes (monkey); format: in vitro ADME; conditions: Cynomolgus Monkey hepatocytes, 0.5×10^6 cells/mL, 37° C.
Text: as §3

[14] = test system: FXR-regulated gene expression in liver and ileum; test: RT-qPCR of FXR-regulated gene expression in liver and ileum after single oral dose; format: in vivo; conditions: mice, single oral dose 10 mg/kg, 6 hours after dose
Text: For RT-qPCR, gene-specific primers were used to quantitate FXR-regulated gene expression in liver and ileum using the 2-ddCT method. Results are shown in FIG. 6 (data presented as mean±SEM; **** indicates p<0.0001 and * indicates p<0.05 versus vehicle, with statistics determined by one-way ANOVA followed by Tukey).

[15] = test system: differentially expressed genes and pathways in liver; test: RNAseq of liver after single oral dose; conditions: mice liver, 6 hours; for number of differentially expressed genes modulated vs vehicle: fold change≥1.5, q-value<0.05; for number of global pathways enriched: p<0.05
Procedure: For RNAseq analysis, mRNA was extracted from total liver and sequenced using standard Illumina library preparation and sequencing protocols. Differentially expressed genes (DEG) were determined using RSEM and edgeR software packages and analyzed using Advaita Bio's iPathwayGuide software.

[16] = test system: FXR-regulated, inflammatory and fibrosis gene expression in the liver; test: Liver gene expression in NASH mouse model (RT-qPCR, RNA-seq); format: in vivo, C57/BL6J mice; conditions: 10, 30, or 100 mg/kg daily oral, 28 days
[17] = test system: 7-alpha-hydroxy-4-cholesten-3-one (7α-C4); test: Clinical 7-day study, serum 7α-C4 suppression; format: in vivo, human; conditions: healthy subjects; for maximum suppression of serum 7α-C4 levels (reduction): Day 7, six hours after dosing
Procedure: as §2
Serum levels of 7-alpha-hydroxy-4-cholesten-3-one (7α-C4) in the subjects were periodically measured. FIGS. 16A and 16B show changes of mean serum levels of 7α-C4 from the pre-dose baseline in different dosing groups on Day 1 and Day 7, respectively. […] On Day 7, maximum suppression of serum 7α-C4 levels was observed six hours after dosing corresponding to a reduction of 74%, 82%, and 91% in the 25, 75, and 150 mg dosing groups, respectively.

[18] = longer term studies; cited from earlier work
[19] = 10, 30, and 100 mg/kg daily oral
[20] = 10, 30, or 100 mg/kg daily oral

## Cn1cc(C(=O)O)c2ccc(N3CCC(OCc4c(-c5c(Cl)cccc5Cl)noc4C4CC4)CC3)cc21 [Compound I, 6-{4-[5-cyclopropyl-3-(2,6-dichloro-phenyl)-isoxazol-4-ylmethoxy]-piperidin-1-yl}-1-methyl-1H-indole-3-carboxylic acid]
[1]
  serum LDL changes above baseline: minimal
[2]
  mean serum levels of Compound I versus its EC50: generally did not exceed the EC50
[3]
  half-life at 1 µM: 2.1 ± 0.258 h
[4]; [19]
  ballooning score compared to untreated NASH mice: significantly reduced
  inflammation score compared to untreated NASH mice: significantly reduced
  steatosis score compared to untreated NASH mice: significantly reduced
[4]; [20]
  NAFLD Activity Score (NAS) compared to untreated NASH mice: significantly lower
  liver fibrosis (Sirius Red-positive area) compared to untreated NASH control: statistically significant reduced fibrosis
[5]; all doses (25, 75, 150 mg QD for 7 days)
  reports of pruritus: no reports of pruritus
[5]; all doses, during dosing and for 10 (±1) days after
  safety and tolerability: safe and well tolerated
[6]
  half-life at 1 µM: 2.18 ± 0.0685 h
[7]
  suppression of the pharmacodynamics biomarker 7α-C4: sustained suppression
[8]
  tissues with the most radioactive material: Liver, small intestine, and cecum
[9]
  bioavailability: 18%
[10]
  half-life at 1 µM: 1.4 ± 0.108 h
[11]
  half-life at 1 µM: 0.727 ± 0.0472 h
FGF-19
  maximum increases from baseline in serum FGF 19 levels: 718% and 486% and 454%
[12]
  plasma exposure on day 1 and day 7: comparable
[13]
  half-life at 1 µM: 1.06 ± 0.013 h
[14]
  induction of FXR-specific genes (liver SHP1, liver OSTb, ileum SHP1, ileum FGF15): preferentially induces FXR-specific genes in the liver
[15]; single oral 10 mg/kg
  number of differentially expressed genes modulated vs vehicle: 500 genes
  number of global pathways enriched: 32 pathways
[16]
  collagen, type 1, alpha 1 expression in the liver compared to control NASH mice: decreased
[17]; 25 mg QD
  maximum suppression of serum 7α-C4 levels (reduction): 74%
[17]; 75 mg QD
  maximum suppression of serum 7α-C4 levels (reduction): 82%
[17]; 150 mg QD
  maximum suppression of serum 7α-C4 levels (reduction): 91%
[17]; Day 1, all dosed groups (25, 75, 150 mg)
  suppression of serum 7α-C4 levels after a single dose: partial suppression

## CC[C@H]1[C@@H](O)[C@@H]2[C@H](CC[C@]3(C)[C@@H]([C@H](C)CCC(=O)O)CC[C@@H]23)[C@@]2(C)CC[C@@H](O)C[C@@H]12 [OCA, obeticholic acid, reference compound]
[18]
  pruritus: known to result in pruritus
[15]; single oral 30 mg/kg
  number of differentially expressed genes modulated vs vehicle: 44 genes
  number of global pathways enriched: 6 pathways

## O=C(O)c1ccnc(N2CC(O)(c3ccc(OCc4c(-c5c(Cl)cccc5Cl)noc4C4CC4)cc3Cl)C2)c1 [cilofexor]
[18]
  pruritus: known to result in pruritus

## O=C(O)c1cc(F)c2nc(N3[C@@H]4CC[C@H]3C[C@@H](OCc3c(-c5ccccc5OC(F)(F)F)noc3C3CC3)C4)sc2c1 [tropifexor]
[18]
  pruritus: known to result in pruritus
